For 3 compounds, MIC results are on record in patent US4207326A, “Antimicrobial quaternary pyrazole derivatives” (Cilag-Chemie A.G., priority 1979, dated 1980).

The structures appear in SMILES notation. Where two headings read alike, the source gives them in different places.

In test [1] the test system is M. canis. Nature of the test: Antifungal activity: Minimum Inhibitory Concentration. It is filed as cell-based, Microsporum canis NCPF 351. Particulars: Microsporum canis, M. canis, 27° C., one week, read-out: Minimum Inhibitory Concentration. How it is done: (§1) The antimicrobial activity was determined by inoculation of the test microorganism into suitable growth media containing solutions of the compounds at concentrations of 100, 50, 10, 5, 1.0, 0.5 and 0.1 μg/ml. The reference antibiotics used were Gentamicin for the antibacterial tests and Amphotericin B for the antimycotic and antifungal tests. After incubation the antimicrobial activity was recorded as the Minimal Inhibitory Concentration (M.I.C.), i.e., the lowest concentration preventing macroscopically visible growth, for each test compound against each organism.
(§2) An initial solution of each formula (I) compound to be tested in sterile distilled water was prepared at a concentration of 1000 μg/ml. With appropriate dilutions using sterile distilled water, additional solutions were prepared at concentrations of 500, 100, 50, 10, 5 and 1 μg/ml.
(§3) The A. corymbifera, A. fumigatus, S. schenkii, T. rubrum, T. mentagrophytes, M. canis and P. verrucosa strains were all maintained on Sabouraud-Dextrose Agar (Oxoid CM 41) by incubating for 14 days at 27° C. To prepare the inocula 30 ml volumes of Sabouraud-Liquid medium (Oxoid CM 147) were inoculated from the agar cultures and incubated at 27° C. until heavy uniform growth resulted. The mycelial growth was then broken up by shaking with glass beads.
(§4) 1 Ml aliquots were removed from each of the cultures for the purpose of making viable counts and the cultures were then held at 4° C. The viable counts were made by preparing serial ten-fold dilutions of the cultures in sterile physiological saline and spreading on plates of Sabouraud-Dextrose Agar (Oxoid CM 41) which were then incubated at 27° C. for 14 days. When the viable counts had confirmed that each of the inocula contained approximately 10^6 colony forming units (C.F.U.) per ml the cultures were withdrawn from the refrigerator and used as the inocula for the tests.
(§5) (c) For the tests on each of the remaining seven strains and each of the test and reference compounds, a series of 8 tubes containing 4.5 ml volumes of Sabouraud-Liquid Medium (Oxoid CM 147) were prepared. To 7 of these were added 0.5 ml volumes of the final solutions of the test compounds, giving final concentrations in the broths of 100, 50, 10, 5, 1.0, 0.5 and 0.1 μg/ml. To the eighth tube in each series was added 0.5 ml of the solvent used and diluted as for the preparation of the 500 μg/ml solution of the compound. This tube was used as a growth control. The tubes were then inoculated with 0.1 ml aliquots of the inocula prepared as in "(b) Fungi" above. The tubes were then incubated at 27° C. with continuous shaking for a period of one week. The tubes were then examined for evidence of growth as shown by the presence of mycelial growth in the medium and the lowest concentration of the test compound which prevented fungal growth was recorded as the Minimal Inhibitory Concentration. This test procedure was carried out on two separate days.

The subject of test [2] is C. tropicalis. Kind of test: Antimycotic activity: Minimum Inhibitory Concentration. Particulars: Candida tropicalis, pH 5.5, C. tropicalis, pH 5.5, 37° C., 72 hours, read-out: Minimum Inhibitory Concentrations. Type of test: cell-based, Candida tropicalis NCPF 3111. On the procedure: as §1, §2
The two species, C. albicans and C. tropicalis, were maintained on Sabouraud-Dextrose Agar (Oxoid CM41) and cultures for the preparation of the inoculum were incubated on this agar at 37° C. for 48 hours. 4.5 Ml volumes of citric acid-phosphate buffer pH 5.5 plus Yeast-Nitrogen Base (Difco 0392-15) were then inoculated from the agar cultures and incubated at 37° C. for 48 hours. 0.1 Ml aliquots of these cultures were then added to 100 ml volumes of sterile physiological saline to give the final inocula.
(b) For the tests on each of the C. albicans, C. tropicalis and C. neoformans strains and each of the test and reference compounds, a series of 8 tubes containing 4.5 ml volumes of citric acid-phosphate buffer pH 5.5 plus Yeast-Nitrogen Base (Difco 0392-15) were prepared. To 7 of these were added 0.5 ml volumes of the final solutions of the test compounds, giving final concentrations in the broths of 100, 50, 10, 5, 1.0, 0.5 and 0.1 μg/ml. To the eighth tube in each series was added 0.5 ml of the solvent used and diluted as for the preparation of the 1000 μg/ml solution of the compound. This tube was used as the growth control. The tubes were then inoculated with 0.1 ml aliquots of the inocula prepared as in "(b) Fungi" above. The tubes inoculated with the C. albicans and C. tropicalis were inoculated at 37° C. for 72 hours and the tubes inoculated with the C. neoformans straim were incubated at 30° C. for 72 hours. […] The tubes were then examined for evidence of growth as shown by turbidity of the medium and the lowest concentration of the test compound which prevented fungal growth was recorded as the Minimal Inhibitory Concentration. This test procedure was carried out on two separate days.

The subject of test [3] is S. aureus. Nature of the test: Antibacterial activity: Minimum Inhibitory Concentration. Type of test: cell-based, Staphylococcus aureus ATCC 6538. The conditions noted are these: Staphylococcus aureus, 24 hours. How it is done:
as §1, §2
They were cultured and maintained on Tryptone Soy Agar (Oxoid CM 131), with the addition of 10% horse blood for the S. pyogenes.
To prepare the organisms as inocula for the test, slopes of this medium were streaked with the organisms and incubated at 37° C. for 24 hours. 4.5 Ml volumes of Brian-Heart Infusion Broth (Oxoid CM 225) were then inoculated with a platinum loop from the agar slope cultures and incubated for 24 hours at 37° C. The final inocula were then prepared by adding 0.1 ml aliquots of the Brain-Heart Infusion Broth cultures to 100 ml volumes of sterile physiological saline.
(a) For the test on each of the bacterial strains and each of the test and reference compounds, a series of 8 tubes containing 4.5 ml volumes of Brain-Heart Infusion Broth (Oxoid CM 225) were prepared. To 7 of these were added 0.5 ml volumes of the final solutions of the test compouns, giving final concentrations in the broths of 100, 50, 10, 5, 1.0, 0.5 and 0.1 μg/ml. To the eighth tube in each series was added 0.5 ml of the solvent used and diluted as for the preparation of the 1000 μg/ml solution of the compound. This tube was used as the growth control. The tubes were inoculated with 0.02 ml aliquots of the inocula prepared in accordance with "(a) Bacteria" above, and incubated at 37° C. for 24 hours. The tubes were then examined for evidence of bacterial growth as shown by turbidity of the medium and the lowest concentration of the test compound which prevented bacterial growth was recorded as the Minimal Inhibitory Concentration. This test procedure was carried out on two separate days.

Test [4] deals with T. rubrum. Nature of the test: Antifungal activity: Minimum Inhibitory Concentration. It is filed as cell-based, Trichophyton rubrum NCPF 197. Particulars: Trichophyton rubrum, T. rubrum, 27° C., one week, read-out: Minimum Inhibitory Concentration. How it is done:
as §1, §2, §3, §4, §5

Test [5] concerns A. fumigatus. Described as above. It is filed as cell-based, Aspergillus fimigatus (A. fumigatus) NCPF 2140. The conditions noted are these: Aspergillus fumigatus, A. fumigatus, 27° C., one week, read-out: Minimum Inhibitory Concentration. How it is done: as §1, §2, §3, §4, §5

On to `CCCCCCCCCCCCCC[n+]1c(C)cc(C)n1Cc1ccc([N+](=O)[O-])cc1.[Br-]` [Example 6-D, 3,5-dimethyl-2(4-nitrobenzyl)-1-tetradecyl-pyrazolium bromide], for which the MIC in test [1] (Day 1) is 10 µg/mL; in test [1] (Day 2), 5 µg/mL; in test [2] (Day 1), 5 µg/mL; in test [2] (Day 2) it was 5 µg/mL; in test [3] (Day 1, 37° C.) it was 1 µg/mL; in test [3] (Day 2, 37° C.), 0.5 µg/mL. The MIC in test [4] (Day 1) came to 10 µg/mL; in test [4] (Day 2), 10 µg/mL; in test [5] (Day 1) it was 50 µg/mL; in test [5] (Day 2) it was 50 µg/mL.
Turning to `CCCCCCCCCCCC[n+]1c(C)cc(C)n1Cc1ccc(Cl)cc1.[Br-]` [Example 6-E, 2-(p-chlorobenzyl)-3,5-dimethyl-1-dodecyl-pyrazolium bromide], the MIC in test [1] (Day 1) is 1 µg/mL; in test [1] (Day 2), 5 µg/mL; in test [2] (Day 1) it was 5 µg/mL; in test [2] (Day 2), 1 µg/mL; in test [3] (Day 1, 37° C.), 0.5 µg/mL; in test [3] (Day 2, 37° C.) it was 0.5 µg/mL. Moreover, the MIC in test [4] (Day 1) was 5 µg/mL; in test [4] (Day 2) it was 5 µg/mL; in test [5] (Day 1) it was 10 µg/mL; in test [5] (Day 2) it was 5 µg/mL.
On to `C=CCn1c(C)cc(C)[n+]1CCCCCCCCCCCCCCCC.[Br-]` [Example 7, 2-allyl-3,5-dimethyl-1-hexadecyl-pyrazoliumbromide], for which the MIC in test [1] (Day 1) amounted to 5 µg/mL; in test [1] (Day 2), 10 µg/mL; in test [2] (Day 1), 0.5 µg/mL; in test [2] (Day 2) it was 0.5 µg/mL; in test [3] (Day 1, 37° C.), 0.5 µg/mL; in test [3] (Day 2, 37° C.), 0.5 µg/mL. Besides, the MIC came out at 1 µg/mL in test [4] (Day 1), 1 µg/mL in test [4] (Day 2), 10 µg/mL in test [5] (Day 1) and 50 µg/mL in test [5] (Day 2).
